Several values for one entry are separate records, joined by “and”; a condition that tells them apart may be missing. Equal entries are not always repeated. Inconclusive results and toxic doses are left out. How the source made its calls: active means survival T/C of 150% or more; inactive means T/C below 125% in these data.
System: P388 leukemia ip, CD2F1 mice, survival T/C
Assay: NCI In Vivo Anticancer Drug Screen. Data for tumor model P388 Leukemia (intraperitoneal) in CD2F1 (CDF1) mice
Conditions: endpoint: median survival time, higher = longer survival
Method in brief: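 Mice carrying the transplanted tumor received test compound or vehicle. Survival was recorded in each group, and the value is the treated-group measurement divided by that of the vehicle-treated control group.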

[1] = dose: 50.0 mg/kg/injection, schedule: Q01DX009 (ip), vehicle: saline with Tween-80
[2] = dose: 100.0 mg/kg/injection, schedule: Q01DX009 (ip), vehicle: saline with Tween-80
[3] = dose: 200.0 mg/kg/injection, schedule: Q01DX009 (ip), vehicle: saline with Tween-80
[4] = dose: 50.0 mg/kg/injection, schedule: Q01DX009 (ip), vehicle: saline
[5] = dose: 100.0 mg/kg/injection, schedule: Q01DX009 (ip), vehicle: saline
[6] = dose: 200.0 mg/kg/injection, schedule: Q01DX009 (ip), vehicle: saline
[7] = dose: 50.0 mg/kg/injection, schedule: Q01DX009 (ip), vehicle: Klucel (hydroxypropylcellulose) (HPC)
[8] = dose: 100.0 mg/kg/injection, schedule: Q01DX009 (ip), vehicle: Klucel (hydroxypropylcellulose) (HPC)
[9] = dose: 200.0 mg/kg/injection, schedule: Q01DX009 (ip), vehicle: Klucel (hydroxypropylcellulose) (HPC)

Measured: T/C

Fc1cccc(CSC(=S)Nc2ccc(Cl)c(C(F)(F)F)c2)c1
inactive: dose: 50.0 mg/kg/injection, schedule: Q01DX009 (ip), vehicle: suspension in saline 98 % of control | dose: 100.0 mg/kg/injection, schedule: Q01DX009 (ip), vehicle: suspension in saline 93 % of control | dose: 200.0 mg/kg/injection, schedule: Q01DX009 (ip), vehicle: suspension in saline 98 % of control

CN(c1ccccc1)C1C=C(c2ccccc2)OC(=O)C1(Cl)Cl (centres undefined)
inactive: [1] 92 % of control | [2] 95 % of control | [3] 98 % of control

C=CC(=O)N1CCCC1C(=O)O (centres undefined)
inactive: [4] 100 % of control | [5] 109 % of control | [6] 100 % of control

C#CCOC(=O)C1CCCCC1
inactive: [1] 110 % of control | [2] 110 % of control | [3] 112 % of control

CN(C)C(C#N)C(=O)c1ccccc1 (centres undefined)
inactive: dose: 25.0 mg/kg/injection, schedule: Q01DX009 (ip), vehicle: Klucel (hydroxypropylcellulose) (HPC) 107 % of control | [7] 110 % of control | [8] 104 % of control

Nc1nnn(/N=C\C=N/n2nnc(N)n2)n1
inactive: dose: 100.0 mg/kg/injection, schedule: Q01DX001 (ip), vehicle: Klucel (hydroxypropylcellulose) (HPC) 94 % of control | dose: 200.0 mg/kg/injection, schedule: Q01DX001 (ip), vehicle: Klucel (hydroxypropylcellulose) (HPC) 102 % of control | dose: 400.0 mg/kg/injection, schedule: Q01DX001 (ip), vehicle: Klucel (hydroxypropylcellulose) (HPC) 105 % of control

CC1(C)C=C2OC(=O)CCC2(C)CC1 (centres undefined)
inactive: dose: 50.0 mg/kg/injection, schedule: Q01DX001 (ip), vehicle: saline with Tween-80 95 % of control | dose: 100.0 mg/kg/injection, schedule: Q01DX001 (ip), vehicle: saline with Tween-80 118 % of control | dose: 200.0 mg/kg/injection, schedule: Q01DX001 (ip), vehicle: saline with Tween-80 90 % of control

Cc1ccc(NC(=O)c2ccc(Cl)cc2Cl)cc1C
inactive: [2] 95 % of control | [3] 104 % of control | dose: 400.0 mg/kg/injection, schedule: Q01DX009 (ip), vehicle: saline with Tween-80 100 % of control

CCOc1c(N=Nc2ccc(Cl)cc2)c(-c2ccccc2)nn1C(N)=S
inactive: dose: 50.0 mg/kg/injection, schedule: Q01DX005 (ip), vehicle: saline + Tween-80 + alcohol 108 % of control | dose: 100.0 mg/kg/injection, schedule: Q01DX005 (ip), vehicle: saline + Tween-80 + alcohol 94 % of control | dose: 200.0 mg/kg/injection, schedule: Q01DX005 (ip), vehicle: saline + Tween-80 + alcohol 99 % of control

CC(=O)C1=C(c2ccccc2)NC(=O)NC1c1ccco1 (centres undefined)
inactive: dose: 100.0 mg/kg/injection, schedule: Q04DX003 (ip), vehicle: saline with Tween-80 95 % of control | dose: 200.0 mg/kg/injection, schedule: Q04DX003 (ip), vehicle: saline with Tween-80 95 % of control | dose: 400.0 mg/kg/injection, schedule: Q04DX003 (ip), vehicle: saline with Tween-80 90 % of control

CCCCCCCCCCCC(=O)c1c(O)cc(C)oc1=O
inactive: dose: 60.0 mg/kg/injection, schedule: Q01DX005 (ip), vehicle: Klucel (hydroxypropylcellulose) (HPC) 100 % of control | dose: 120.0 mg/kg/injection, schedule: Q01DX005 (ip), vehicle: Klucel (hydroxypropylcellulose) (HPC) 98 % of control | dose: 240.0 mg/kg/injection, schedule: Q01DX005 (ip), vehicle: Klucel (hydroxypropylcellulose) (HPC) 105 % of control

Nc1c(C(=O)NCc2ccccc2)c2nc3c(C(=O)NCc4ccccc4)ccc(Br)c3oc-2c(Br)c1=O
inactive: dose: 50.0 mg/kg/injection, schedule: Q01DX005 (ip), vehicle: saline with Tween-80 98 % of control | dose: 100.0 mg/kg/injection, schedule: Q01DX005 (ip), vehicle: saline with Tween-80 86 % of control | dose: 200.0 mg/kg/injection, schedule: Q01DX005 (ip), vehicle: saline with Tween-80 89 % of control

CCOC(=O)c1ccccc1NC(=O)C1C2C=CC(C2)C1C(=O)O (centres undefined)
inactive: dose: 50.0 mg/kg/injection, schedule: Q01DX009 (ip), vehicle: saline + alcohol 103 % of control | dose: 100.0 mg/kg/injection, schedule: Q01DX009 (ip), vehicle: saline + alcohol 104 % of control | dose: 200.0 mg/kg/injection, schedule: Q01DX009 (ip), vehicle: saline + alcohol 97 % of control

O=P(c1cccs1)(c1cccs1)c1cccs1
inactive: [7] 96 % of control | [8] 92 % of control | [9] 101 % of control

Nc1c(Br)cc2c(c1Br)Cc1cc([N+](=O)[O-])ccc1-2
inactive: dose: 31.3 mg/kg/injection, schedule: Q01DX010 (ip), vehicle: saline 90 % of control | dose: 62.5 mg/kg/injection, schedule: Q01DX010 (ip), vehicle: saline 100 % of control | dose: 125.0 mg/kg/injection, schedule: Q01DX010 (ip), vehicle: saline 105 % of control | dose: 250.0 mg/kg/injection, schedule: Q01DX010 (ip), vehicle: saline 110 % of control

O=S(=O)(Nc1cc2c3ccccc3ccc2c2ccccc12)c1ccccc1
inactive: [7] 96 % of control | [8] 105 % of control | [9] 100 % of control

C[CH2][Sn]([CH2]C)([N](c1ccccn1)c1ccccn1)[N](c1ccccn1)c1ccccn1
inactive: dose: 1.56 mg/kg/injection, schedule: Q01DX005 (ip), vehicle: Klucel (hydroxypropylcellulose) (HPC) 123 % of control | dose: 3.12 mg/kg/injection, schedule: Q01DX005 (ip), vehicle: Klucel (hydroxypropylcellulose) (HPC) 119 % of control | dose: 6.25 mg/kg/injection, schedule: Q01DX005 (ip), vehicle: Klucel (hydroxypropylcellulose) (HPC) 116 % of control and 123 % of control

O=C(O)CC(NC(=O)CCl)C(=O)O (centres undefined)
inactive: [4] 99 % of control and 101 % of control | [5] 100 % of control and 101 % of control | [6] 101 % of control and 92 % of control

COc1ccc(/C=N\N=C(/[O-])c2ccccc2O)cc1.COc1ccc(/C=N\N=C(/[O-])c2ccccc2O)cc1.[Mn+2].[OH3+].[OH3+]
inactive: dose: 50.0 mg/kg/injection, schedule: Q04DX002 (ip), vehicle: saline with Tween-80 107 % of control | dose: 100.0 mg/kg/injection, schedule: Q04DX002 (ip), vehicle: saline with Tween-80 108 % of control | dose: 200.0 mg/kg/injection, schedule: Q04DX002 (ip), vehicle: saline with Tween-80 114 % of control

O=C1Nc2ncnc(Cl)c2Cc2ccccc21
inactive: [1] 100 % of control | [2] 104 % of control | [3] 104 % of control

Cc1ncc(-c2ccccc2)c(N)n1
inactive: [4] 91 % of control | [5] 92 % of control | [6] 102 % of control

[Fe]=[Se]
inactive: dose: 60.0 mg/kg/injection, schedule: Q01DX005 (ip), vehicle: saline with Tween-80 96 % of control | dose: 120.0 mg/kg/injection, schedule: Q01DX005 (ip), vehicle: saline with Tween-80 86 % of control | dose: 240.0 mg/kg/injection, schedule: Q01DX005 (ip), vehicle: saline with Tween-80 107 % of control

Cc1ccc(S(=O)(=O)C(CC(=O)CCN2CCCCC2)c2ccccc2)cc1 (centres undefined)
inactive: [4] 102 % of control | [5] 96 % of control
